One data set concerns hHDAC6. The conditions noted are these: recombinant enzyme, previously reported; ref [25]; cited from earlier work.
Data set [1] can be described thus: MTT cytotoxicity assay on BJ fibroblasts. The class given is cell-based. The conditions noted are these: human, BJ fibroblast cells, compounds 100-0.78 μM, GA 10-0.078 μM, 2 independent experiments. The method, then: (§1) The NCTC clone 929 (L-929) murine fibroblast isolated from subcutaneous connective tissue (ATCC-CCL-1) were cultured in Dulbecco’s Modified Eagle Medium (DMEM) supplemented with 10 mM Hepes (pH 6.98–7.30), 1 mM l-glutamine, 100 U/ml of penicillin/streptomycin (BioWhittaker, Lonza, EuroClone SpA), and heat-inactivated 10% FBS. All cells were cultured at 37°C in a 5% CO2 humidified incubator.
(§2) The MTT method was employed as previously described to determine the viability of fibroblast cell lines. Briefly, cells seeded into 96-well plates at a density of 20,000 cells/well after overnight incubation, were exposed to selected compounds at the indicated concentrations for 24–72 h. Next they were gently washed, incubated with MTT (bromuro di 3-(4,5-dimetiltiazol-2-il)-2,5-diphenyltetrazolium) for 4 h, and processed for color detection with DMSO. The resulting purple solution was spectrophotometrically measured at 570 nm using a Varioskan Lux instrument and Skanit software (Thermo Fisher Scientific).
(§3) The optical density values for both assays were expressed as a percentage of cell survival and normalized with the value of cells treated with vehicle (DMSO), and the data were analyzed using GraphPad Prism v9.5.1 software (San Diego, CA, USA).
(§4) The cytotoxicity of the hit compounds was assessed in two independent experiments on murine L929 and human BJ fibroblasts at 24 h by MTT assays. Vehicle (DMSO) and Gambogic acid (GA) were used as negative and positive control respectively. The compounds show a safe profile on both cell lines (S2 Table).
(§5) The IC50(μM) shown was calculated by dose-response curves of the compounds on murine L929 and human BJ fibroblast cells. […] The data are representative of 2 independent experiments. Gambogic acid (GA) and vehicle (DMSO) were used as positive and negative controls respectively. (DOCX)
(Tetrazolium assays rely on reduction of a dye to a coloured formazan, in cell work by metabolically active cells.)

In the next data set the test system is MDCK cell. On the set-up: method as in earlier work. The note with it: QikProp; >500 great; ref [25]; cited from earlier work.
A further data set deals with Caco-2 cell. Also on record: method as in earlier work. The note with it: QikProp; >500 great; ref [25]; cited from earlier work.
The next data set relates to hHDAC1. The conditions noted are these: recombinant enzyme, previously reported; ref [25]; cited from earlier work.
Data set [2] concerns tubulin of S. mansoni adult worm pairs. Put plainly: Western blot, tubulin acetylation in adult worm pairs. It counts as cell-based, Schistosoma mansoni. The note with it: 48 h and 72 h, partially lethal and sub-lethal doses. The method, then:
Ten adult pairs were treated with selected HDAC inhibitors for 48 h or 72 h at partially lethal and sublethal concentrations. Compound concentrations were selected based on the viability curve, Trichostatin A (TSA), a pan-HDAC inhibitor, and NF2503 a SmHDAC8 inhibitor chemically characterized by the presence of a hydroxamate-based MBG (metal binding group) coupled to a tricyclic thieno[3,2-b]indole core as capping group, previously described were used as positive controls in the experiments; DMSO (vehicle) was the negative control. Parasites were processed as previously described and samples were analyzed by 15% SDS-PAGE, and immunoblotting was performed using α-tubulin DM1A (1:5000), α-acetylated-lysine (1:4000) and α-acetylated tubulin (1:3000) antibodies. A Chemidoc XRS Bio-Rad with a chemiluminescent camera and Bio-Rad ImageLab 4.0 software were used for the acquisition and analysis of images. Each Western blot analysis was calibrated by Ponceau staining.
TSA, a known pan- class I and class II HDAC -inhibitor, and NF2503, a HDAC inhibitor previously shown to impact histone acetylation in adult worm pairs were used as positive controls.
Fig 6 Effects of selected compounds on histones and tubulin acetylation. […]

A short description of data set [3]: MTT cytotoxicity assay on L929 fibroblasts. The class given is cell-based, murine. The note with it: mouse, L929 (NCTC clone 929) fibroblast cells, compounds 100-0.78 μM, GA 10-0.078 μM, 2 independent experiments. The method, then:
as §1, §2, §3, §4, §5

A further data set deals with HERG K+ channels. On the set-up: method as in earlier work. The conditions noted are these: QikProp, log value; recommended below -5; ref [25]; cited from earlier work.

A value given as a limit tells only on which side of the number the result lay.

The term IC50 denotes the point on the concentration scale where inhibition reaches its midpoint. Turning to `Cn1c(=O)c(OCc2ccc(C(=O)NO)cc2)c(C2CCCCC2)c2ccccc21` [NF2836], the results for the IC50 with hHDAC6 and with hHDAC1 were 33 ± 2.6 nM and 3000 ± 200 nM, respectively. The 50% inhibitory concentration (IC50) at 24 h in data set [1] and in data set [3] was > 100000 nM throughout. Also, in the data set with MDCK cell, the “QPPMDCK predicted apparent MDCK cell permeability” value was 11.753 ×10⁻⁶ cm/s. The “QPPCaco predicted apparent Caco-2 cell permeability” value in the data set on Caco-2 cell was 26.454 ×10⁻⁶ cm/s. Also, the “tubulin acetylation vs vehicle (DMSO)” value in data set [2] was “highest increase in tubulin acetylation”. In addition, the “QPlogHERG predicted IC50 values for blockage of HERG K+ channels” value with HERG K+ channels is recorded as -5.45.

On to `CCN(CC)Cc1ccc(Cn2c(=O)c(OCc3ccc(C(=O)NO)cc3)c(-c3cccnc3)c3ccccc32)cc1` [NF2838], for which the IC50 with hHDAC6 is 11.5 ± 1.5 nM; with hHDAC1, 300 ± 100 nM. Also, the IC50 at 24 h in data set [1] is > 100000 nM; in data set [3], 64000 to 100000 nM. In addition, the “QPPMDCK predicted apparent MDCK cell permeability” value in the data set with MDCK cell was 2.431 ×10⁻⁶ cm/s. In addition, in the data set on Caco-2 cell, the “QPPCaco predicted apparent Caco-2 cell permeability” value is 5.607 ×10⁻⁶ cm/s. In data set [2], the “tubulin acetylation vs vehicle (DMSO)” value is “increased acetylation”. Besides, the “QPlogHERG predicted IC50 values for blockage of HERG K+ channels” value with HERG K+ channels was -7.83.

Values taken from publication PMC10927086, “Effects of structurally distinct human HDAC6 and HDAC6/HDAC8 inhibitors against S. mansoni larval and adult worm stages” (PLOS Neglected Tropical Diseases, 2024).
